Measured values published in patent publication US20120010206A1, “IMIDAZOLOPYRIDINE COMPOUNDS USEFUL FOR THE TREATMENT OF DEGENERATIVE AND INFLAMMATORY DISEASES” (priority 2006, published 2012).

Biological target: T1, TAK1-TAB1 fusion protein (Homo sapiens, UniProt O43318)
T1 construct: purchased Upstate 14-600
T1 sequence (O43318 with tags, fused parts or gaps limits assumed): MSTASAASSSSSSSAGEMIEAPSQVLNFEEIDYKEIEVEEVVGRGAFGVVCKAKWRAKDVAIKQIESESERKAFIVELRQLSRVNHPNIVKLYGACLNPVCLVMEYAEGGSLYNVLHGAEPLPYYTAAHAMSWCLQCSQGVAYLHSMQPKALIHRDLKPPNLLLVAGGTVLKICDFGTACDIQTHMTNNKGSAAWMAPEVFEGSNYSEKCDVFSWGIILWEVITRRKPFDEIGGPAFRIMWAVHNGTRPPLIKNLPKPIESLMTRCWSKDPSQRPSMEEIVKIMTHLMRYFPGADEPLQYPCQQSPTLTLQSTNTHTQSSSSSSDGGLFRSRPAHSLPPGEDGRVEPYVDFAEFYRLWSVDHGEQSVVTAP
Assay: In vitro TAK1 kinase assay (33P-ATP, casein substrate)
Format: biochemical
Details: semi-quantitative score, at least two independent experiments
Experimental: For assessing TAK1 inhibition, active TAK1-TAB1 fusion protein was used from Upstate (Cat. No, 14-600). Kinase reactions are set up in 96-well polypropylene plates in 25 μL containing 0.5 mU TAK1-TAB1 fusion protein, […], 0.01 μCi/μL [^33P]-γ-ATP, 0.1 mg/mL casein substrate in 1× reaction buffer containing 10 mM MOPS pH 7.0, 1 mM EDTA.
Starting from the compound master stocks (all at 10 mM concentration in 100% DMSO) a 3-fold serial dilution is made in 96-well plates in 100% DMSO. Plates are further diluted […] in H2O containing 3.5% DMSO, to obtain an intermediate work stock with compounds at 5× the final assay concentration in 5% DMSO.
5 μL of the intermediate stock is transferred into V-bottom 96 well polypropylene plates and 11 μL of Enzyme mix is added. Enzyme mix is made by combining 5 μL 5× reaction buffer ([…] pH 7.0, 1 mM EDTA), 5 μL casein (Sigma) diluted in H2O to 0.5 mg/mL and 1 μL of TAK1-TAB1 fusion protein that was prediluted to 0.5 mU/μL in 1× enzyme dilution buffer (20 mM MOPS pH 7.0, 0.1 mM EDTA, 0.01% Brij-35, 5% glycerol, 1 mM DTT, 1 mg/ml BSA).
The reactions are started by the addition of 9 μL of mixture containing ATP (20.83 uM) and [^33P]-γ-ATP (0.028 μCi/μL).
The assay is stopped 90 minutes after incubation at 30° C. by the addition of 25 μL phosphoric acid (150 mM). The label incorporated into the casein substrate is separated from labeled unincorporated ATP by filtration onto 96-well filter plates using a harvester device. After 6 washes with 75 mM phosphoric acid, the bottom of the filter plates are sealed, and incorporated label is quantified after addition of 40 μL scintillation fluid using TopCount.
Based on these percent inhibition data obtained in at least two independent experiments for the compounds, compounds are ranked using semi-quantitative scores. Table A below lists a number of compounds which have been or can be prepared according to the synthetic methods described herein. Semi-quantitative score: • *>3001 nM • ** 1001-3000 nM • *** 101-1000 nM • ****<100 nM

Structure (SMILES) | IC50 [nM]
O=C1NCc2cc(-c3ccc(Nc4ccc(-n5cccn5)cc4)c4nccn34)ccc21 [Compound 30, 5-(8-(4-(1H-pyrazol-1-yl)phenylamino)imidazo[1,2-a]pyridin-5-yl)isoindolin-1-one] | 1000 to 3000
CC(C)N1CCN(c2ccc(Nc3ccc(-c4ccc(O)c(F)c4)n4ccnc34)cc2)CC1 [Compound 93] | 1000 to 3000
C[C@@H]1CN(c2ccc(Nc3ccc(-c4cc[nH]c(=O)c4)n4ccnc34)cc2)C[C@H](C)N1C [Compound 98] | 101 to 1000
C[C@@H]1CN(C)[C@@H](C)CN1c1ccc(Nc2ccc(-c3cc[nH]c(=O)c3)n3ccnc23)cc1 [Compound 99] | 101 to 1000
O=c1cc(-c2ccc(Nc3ccc(C4CCNCC4)cc3)c3nccn23)cc[nH]1 [Compound 100] | 101 to 1000
C[C@@H]1CN(c2ccc(Nc3ccc(-c4cc[nH]c(=O)c4)n4ccnc34)cc2F)C[C@H](C)N1C [Compound 101] | 101 to 1000
CC(C)N1CCN(c2ccc(Nc3ccc(-c4cc[nH]c(=O)c4)n4ccnc34)cc2F)CC1 [Compound 103] | 101 to 1000
CCN1CCN(c2ccc(Nc3ccc(-c4cc[nH]c(=O)c4)n4ccnc34)cc2Cl)CC1 [Compound 104] | 101 to 1000
CC(C)N1CCN(c2ccc(Nc3ccc(-c4cc[nH]c(=O)c4)n4ccnc34)cc2Cl)CC1 [Compound 105] | 101 to 1000
O=c1cc(-c2ccc(Nc3ccc(N4CCN(CC(F)F)CC4)cc3)c3nccn23)cc[nH]1 [Compound 110, 4-(8-{4-[4-(2,2-Difluoro-ethyl)-piperazin-1-yl]-phenylamino}-imidazo[1,2-a]pyridin-5-yl)-1H-pyridin-2-one] | > 3000

The remaining lines, values ahead:

IC50 [nM] | Structure (SMILES)
101 to 1000 | O=C1NCc2cc(-c3ccc(Nc4ccc(-n5cncn5)cc4)c4nccn34)ccc21 [Compound 31, 5-(8-(4-(1H-1,2,4-triazol-1-yl)phenylamino)imidazo[1,2-a]pyridin-5-yl)isoindolin-1-one]
101 to 1000 | O=C(NCc1cccc(-n2cccc2)c1)c1ccc(Nc2ccc(-c3ccc4c(c3)CNC4=O)n3ccnc23)cc1 [Compound 35, 4-[5-(1-Oxo-2,3-dihydro-1H-isoindol-5-yl)-imidazo[1,2-a]pyridin-8-ylamino]-N-(3-pyrrol-1-yl-benzyl)-benzamide]
101 to 1000 | CC1CCCN(C2CCN(C(=O)c3ccc(Nc4ccc(-c5ccc6c(c5)CNC6=O)n5ccnc45)cc3)CC2)C1 (stereo not shown) [Compound 54, 5-{8-[4-(3-Methyl-[1,4′]bipiperidinyl-1′-carbonyl)-phenylamino]-imidazo [1,2-a]pyridin-5-yl}-2,3-dihydro-isoindol-1-one]
101 to 1000 | CC1CCN(C2CCN(C(=O)c3ccc(Nc4ccc(-c5ccc6c(c5)CNC6=O)n5ccnc45)cc3)CC2)CC1 [Compound 55, 5-{8-[4-(4-Methyl-[1,4′]bipiperidinyl-1′-carbonyl)-phenylamino]-imidazo [1,2-a]pyridin-5-yl}-2,3-dihydro-isoindol-1-one]
101 to 1000 | O=C(NCCN1CCCCC1)c1ccc(Nc2ccc(-c3ccc4c(c3)CNC4=O)n3ccnc23)cc1 [Compound 56, 4-(5-(1-oxoisoindolin-5-yl)imidazo[1,2-a]pyridin-8-ylamino)-N-(2-(piperidin-1-yl)ethyl)benzamide]
101 to 1000 | CC(=O)NCCNC(=O)c1ccc(Nc2ccc(-c3ccc4c(c3)CNC4=O)n3ccnc23)cc1 [Compound 57, N-(2-acetamidoethyl)-4-(5-(1-oxoisoindolin-5-yl)imidazo[1,2-a]pyridin-8-ylamino)benzamide]
101 to 1000 | COCCNC(=O)c1ccc(Nc2ccc(-c3ccc4c(c3)CNC4=O)n3ccnc23)cc1 [Compound 58, N-(2-methoxyethyl)-4-(5-(1-oxoisoindolin-5-yl)imidazo[1,2-a]pyridin-8-ylamino)benzamide]
101 to 1000 | C[C@@H]1CN(C)[C@@H](C)CN1c1ccc(Nc2ccc(-c3cc[nH]c(=O)c3)n3ccnc23)cc1F [Compound 97]
< 100 | O=C(c1ccc(Nc2ccc(-c3cc[nH]c(=O)c3)n3ccnc23)cc1)N1CCC(N2CCCCC2)CC1 [Compound 102]
